Data taken from patent US11471391B2, “Cosmetic composition for inhibiting sebum hypersecretion” (NeoPharm Co., Ltd., priority 2019, dated 2022).

How the values were obtained:
Type in all cases: cell-based
human sebocytes [1] = assay: Nile red staining of human sebocytes, microscopic image; settings: Nile red 1 ug/ml for 30 minutes, FIG. 3
Description: (§1) 1×10^5 (1 mL/well) of human sebocytes were adhered on a 12-well plate containing a Dulbecco's modified eagle medium (DMEM)/F12 (1:1) containing 10% fetal bovine serum (FBS).

PPAR-γ = assay: Effect of inhibiting expression of PPAR-γ by Western blot in IGF-1-treated human sebocytes; settings: human sebocytes pretreated with IGF-1 (50 ng/ml), sample 20 μM, 24 hours, FIG. 1
Description: 1. Effect of Inhibiting Expression of PPAR-γ by Western Blot
In the present invention, 1.5×10^5 (1 mL/well) of human sebocytes were adhered on a 12-well plate containing a Dulbecco's modified eagle medium (DMEM)/F12 (1:1) containing 10% fetal bovine serum (FBS). After culturing for 24 hours, cells were collected after 24 hours from each sample of a control group (1 μM) in which the medium was replaced with a serum-free medium and previously treated with IGF-1 (50 ng/ml) and an experimental group in which the control group was treated with Compound 1 of Example 1 (20 μM). In addition, in the present invention, the control means a sample which was not treated with IGF-1, and the comparative group means a sample in which the control group was treated with retinoic acid (20 μM). Thereafter, expression of PPAR-γ protein which is a representative lipid synthetic transcription factor of sebocytes was analyzed by the Western blot, for each of these samples.

human sebocytes [2] = assay: Effect of inhibiting sebum secretion, oil red O staining of IGF-1-treated human sebocytes
Description: 2. Effect of Inhibiting Sebum Secretion
as §1
In FIG. 2, each sample of a control group (1 μM) which was previously treated with IGF-1 (50 ng/ml) after culturing for 24 hours and an experimental group in which the control group was treated with Compound 1 of Example 1 (20 μM) was stained after 24 hours with a 0.5% oil red O solution for 1 hour and treated with 100% isopropanol, and an absorbance was measured by a 500 nm ELISA reader.

## CCCCCCCC(=O)C(CCCCCC)C(=O)N[C@@H](C)C(=O)OC (stereo partly shown) [Compound 1, methyl (2-hexyl-3-oxodecanoyl)alaninate]
Human sebocytes [1]
  differentiation of fat cells (Nile red staining, microscopic image): differentiation of fat cells is more effectively derived
PPAR-γ
  inhibition of PPAR-γ activation/expression (Western blot): effect of inhibiting PPAR-γ activity is remarkable
Human sebocytes [2]; human sebocytes pretreated with IGF-1 (50 ng/ml), 20 μM, 24 hours, FIG. 2
  sebum production amount (fat content in sebocytes, oil red O, absorbance 500 nm): remarkably decreased
Human sebocytes [2]; human sebocytes pretreated with IGF-1, oil red O, each concentration
  dependence of the sebum production decrease on treatment concentration: significantly increased depending on the treatment concentration
